Test results reported in ChEMBL document CHEMBL3804811 (J Med Chem, 2016).
Values after ≈ are worked out from the molar mass of the structure shown.

Experiments:
[1] = AUC (infinity) in Beagle dog at 10 mg/kg, po administered as single dose by LC-MS/MS analysis; format: ADME, organism-based, Canis lupus familiaris; design: dose 10 mg/kg, time infinity, route oral; conditions: in vivo
[2] = AUC (infinity) in Sprague-Dawley rat at 10 mg/kg, po administered as single dose by LC-MS/MS analysis; format: ADME, organism-based; design: dose 10 mg/kg, time infinity, route oral; conditions: in vivo
[3] = biological target: Tyrosine-protein kinase JAK2 (Homo sapiens, UniProt O60674); assay: Inhibition of JAK2 (unknown origin) in presence of gamma33-ATP
[4] = Oral bioavailability in Harlan nu/nu mouse at 10 mg/kg administered as single dose by LC-MS/MS analysis; format: ADME, organism-based; conditions: in vivo
[5] = Apparent permeability from apical to basolateral side in human Caco2 cells at 2.5 mg/ml after 2 hrs by reversed-phase HPLC method; format: ADME, cell-based; conditions: Caco-2
[6] = Inhibition of SULU1 (unknown origin) in presence of gamma33-ATP; design: species or system Homo sapiens
[7] = biological target: Vascular endothelial growth factor receptor 3 (Homo sapiens, UniProt P35916); assay: Inhibition of VEGFR3 (unknown origin) in presence of gamma33-ATP
[8] = Apparent permeability from basolateral to apical side in human Caco2 cells at 2.5 mg/ml after 2 hrs by reversed-phase HPLC method; format: ADME, cell-based; conditions: Caco-2
[9] = Intrinsic clearance in human liver microsomes at […] preincubated for 5 mins followed by NADPH addition measured after 5 to 30 mins by LC-MS/MS analysis; format: ADME; conditions: read-out: CLH
[10] = biological target: T1, Eukaryotic translation initiation factor 2-alpha kinase 3 (Homo sapiens, UniProt Q9NZJ5); assay: Inhibition of PERK (unknown origin) in presence of gamma33-ATP
T1 sequence (Q9NZJ5 whole entry): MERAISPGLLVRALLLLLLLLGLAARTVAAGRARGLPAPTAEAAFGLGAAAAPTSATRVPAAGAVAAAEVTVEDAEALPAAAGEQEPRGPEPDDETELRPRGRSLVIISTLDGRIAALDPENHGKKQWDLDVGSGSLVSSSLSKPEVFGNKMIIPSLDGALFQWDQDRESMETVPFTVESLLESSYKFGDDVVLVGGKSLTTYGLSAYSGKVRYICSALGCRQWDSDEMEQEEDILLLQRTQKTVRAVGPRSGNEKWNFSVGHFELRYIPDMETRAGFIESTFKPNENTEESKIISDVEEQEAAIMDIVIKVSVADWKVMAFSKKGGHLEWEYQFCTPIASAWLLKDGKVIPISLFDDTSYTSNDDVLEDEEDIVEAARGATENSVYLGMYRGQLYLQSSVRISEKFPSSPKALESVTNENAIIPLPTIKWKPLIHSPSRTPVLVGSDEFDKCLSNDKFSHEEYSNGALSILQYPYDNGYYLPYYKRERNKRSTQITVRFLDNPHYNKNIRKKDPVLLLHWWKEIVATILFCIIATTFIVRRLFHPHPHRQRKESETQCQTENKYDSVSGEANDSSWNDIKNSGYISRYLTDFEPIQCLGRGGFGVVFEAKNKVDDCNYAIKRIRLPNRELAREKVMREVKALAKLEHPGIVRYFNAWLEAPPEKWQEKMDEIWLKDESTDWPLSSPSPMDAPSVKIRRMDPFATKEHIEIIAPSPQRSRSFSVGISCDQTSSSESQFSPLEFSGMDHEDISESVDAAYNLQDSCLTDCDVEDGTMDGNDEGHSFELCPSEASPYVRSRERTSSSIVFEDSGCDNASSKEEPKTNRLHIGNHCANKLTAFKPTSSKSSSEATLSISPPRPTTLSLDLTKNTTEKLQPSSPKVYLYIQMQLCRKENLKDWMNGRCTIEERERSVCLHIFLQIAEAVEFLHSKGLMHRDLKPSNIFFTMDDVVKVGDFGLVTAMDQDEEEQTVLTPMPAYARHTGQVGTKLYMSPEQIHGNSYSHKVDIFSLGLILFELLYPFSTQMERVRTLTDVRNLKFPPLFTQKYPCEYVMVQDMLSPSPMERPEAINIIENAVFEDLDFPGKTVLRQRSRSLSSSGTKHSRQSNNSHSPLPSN

[11] = Clearance in Harlan nu/nu mouse at 10 mg/kg, iv administered as single dose by LC-MS/MS analysis; format: ADME, organism-based; conditions: in vivo
KM12 = assay: Antiproliferative activity against human KM12 cells expressing TRKA protein incubated for 72 hrs by cell titer-glo assay; conditions: KM12, 72 h
NCI-H2228 = assay: Antiproliferative activity against human NCI-H2228 cells expressing ALK protein incubated for 72 hrs by cell titer-glo assay; conditions: NCI-H2228, 72 h
[12] = Oral bioavailability in Sprague-Dawley rat at 10 mg/kg administered as single dose by LC-MS/MS analysis; format: ADME, organism-based; conditions: in vivo
[13] = Antiproliferative activity against human KARPAS299 cells incubated for 72 hrs by cell titer-glo assay; conditions: KARPAS-299, 72 h
[14] = Oral bioavailability in Beagle dog at 10 mg/kg administered as single dose by LC-MS/MS analysis; format: ADME, organism-based, Canis lupus familiaris; conditions: in vivo
[15] = Solubility of compound at pH 7 buffer; format: physicochemical
[16] = Clearance in Beagle dog at 10 mg/kg, iv administered as single dose by LC-MS/MS analysis; format: ADME, organism-based, Canis lupus familiaris; conditions: in vivo
[17] = Cmax in Harlan nu/nu mouse at 10 mg/kg, po administered as single dose by LC-MS/MS analysis; format: ADME, organism-based; design: dose 10 mg/kg, route oral; conditions: in vivo
[18] = Tmax in Harlan nu/nu mouse at 10 mg/kg, po administered as single dose by LC-MS/MS analysis; format: ADME, organism-based; conditions: in vivo
[19] = Half life in Beagle dog at 10 mg/kg, po administered as single dose by LC-MS/MS analysis; format: ADME, organism-based, Canis lupus familiaris; conditions: in vivo
[20] = Half life in Harlan nu/nu mouse at 10 mg/kg, iv administered as single dose by LC-MS/MS analysis; format: ADME, organism-based; conditions: in vivo
[21] = Cmax in Harlan nu/nu mouse at 10 mg/kg, iv administered as single dose by LC-MS/MS analysis; format: ADME, organism-based; design: dose 10 mg/kg, route intravenous; conditions: in vivo
[22] = Cmax in Beagle dog at 10 mg/kg, iv administered as single dose by LC-MS/MS analysis; format: ADME, organism-based, Canis lupus familiaris; design: dose 10 mg/kg, route intravenous; conditions: in vivo
[23] = AUC (infinity) in Harlan nu/nu mouse at 10 mg/kg, po administered as single dose by LC-MS/MS analysis; format: ADME, organism-based; design: dose 10 mg/kg, route oral, time infinity; conditions: in vivo
[24] = Half life in Harlan nu/nu mouse at 10 mg/kg, po administered as single dose by LC-MS/MS analysis; format: ADME, organism-based; conditions: in vivo
[25] = biological target: Mast/stem cell growth factor receptor Kit (Homo sapiens, UniProt P10721); assay: Inhibition of KIT (unknown origin) in presence of gamma33-ATP
Mus musculus = assay: Toxicity in SCID mouse xenografted with human KARPAS299 cells assessed as body weight loss at 30 to 60 mg/kg, po bid administered for 10 days; format: organism-based, KARPAS-299; conditions: in vivo, 240 h
[26] = AUC (infinity) in Beagle dog at 10 mg/kg, iv administered as single dose by LC-MS/MS analysis; format: ADME, organism-based, Canis lupus familiaris; design: dose 10 mg/kg, route intravenous, time infinity; conditions: in vivo
[27] = Ratio of drug level in brain to plasma in Harlan nu/nu mouse at 240 mg/kg, po administered per day for 2 weeks measured 6 hrs post last dose by LC-MS/MS analysis; format: ADME, organism-based; conditions: read-out: BPR

Sequence of Vascular endothelial growth factor receptor 3 (P35916 whole entry): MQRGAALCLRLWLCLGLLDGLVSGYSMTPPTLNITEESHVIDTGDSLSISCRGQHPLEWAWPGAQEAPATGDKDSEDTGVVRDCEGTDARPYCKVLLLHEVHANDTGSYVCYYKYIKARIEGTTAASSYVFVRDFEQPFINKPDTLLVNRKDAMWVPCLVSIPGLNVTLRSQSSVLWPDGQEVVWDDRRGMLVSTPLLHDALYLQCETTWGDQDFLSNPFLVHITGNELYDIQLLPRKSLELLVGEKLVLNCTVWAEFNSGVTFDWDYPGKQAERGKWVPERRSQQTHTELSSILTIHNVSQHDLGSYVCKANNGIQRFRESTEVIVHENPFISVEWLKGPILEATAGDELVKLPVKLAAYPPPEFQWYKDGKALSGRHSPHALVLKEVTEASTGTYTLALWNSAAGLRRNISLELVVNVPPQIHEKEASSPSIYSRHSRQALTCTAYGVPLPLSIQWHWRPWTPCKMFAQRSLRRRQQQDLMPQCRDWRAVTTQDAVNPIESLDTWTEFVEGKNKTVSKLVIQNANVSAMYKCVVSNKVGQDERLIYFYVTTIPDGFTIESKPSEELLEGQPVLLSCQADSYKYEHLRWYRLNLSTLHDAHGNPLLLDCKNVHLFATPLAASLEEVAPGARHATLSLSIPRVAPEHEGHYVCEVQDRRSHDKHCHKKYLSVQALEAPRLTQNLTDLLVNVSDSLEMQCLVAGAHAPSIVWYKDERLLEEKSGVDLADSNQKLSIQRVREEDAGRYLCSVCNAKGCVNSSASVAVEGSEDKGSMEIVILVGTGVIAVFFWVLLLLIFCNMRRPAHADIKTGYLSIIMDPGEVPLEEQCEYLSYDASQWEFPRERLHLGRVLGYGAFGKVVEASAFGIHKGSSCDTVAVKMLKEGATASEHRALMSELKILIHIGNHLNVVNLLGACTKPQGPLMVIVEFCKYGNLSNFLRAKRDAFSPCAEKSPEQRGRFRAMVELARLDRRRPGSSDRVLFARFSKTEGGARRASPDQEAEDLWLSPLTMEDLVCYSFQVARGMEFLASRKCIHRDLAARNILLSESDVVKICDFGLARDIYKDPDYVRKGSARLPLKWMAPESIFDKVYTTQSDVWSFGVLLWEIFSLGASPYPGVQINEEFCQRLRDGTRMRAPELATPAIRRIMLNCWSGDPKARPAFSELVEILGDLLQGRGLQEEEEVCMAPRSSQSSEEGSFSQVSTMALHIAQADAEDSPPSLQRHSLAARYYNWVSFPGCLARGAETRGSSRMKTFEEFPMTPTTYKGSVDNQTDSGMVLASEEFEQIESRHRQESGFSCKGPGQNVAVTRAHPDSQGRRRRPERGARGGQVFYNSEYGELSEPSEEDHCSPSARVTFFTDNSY
Sequence of Tyrosine-protein kinase JAK2 (O60674 whole entry): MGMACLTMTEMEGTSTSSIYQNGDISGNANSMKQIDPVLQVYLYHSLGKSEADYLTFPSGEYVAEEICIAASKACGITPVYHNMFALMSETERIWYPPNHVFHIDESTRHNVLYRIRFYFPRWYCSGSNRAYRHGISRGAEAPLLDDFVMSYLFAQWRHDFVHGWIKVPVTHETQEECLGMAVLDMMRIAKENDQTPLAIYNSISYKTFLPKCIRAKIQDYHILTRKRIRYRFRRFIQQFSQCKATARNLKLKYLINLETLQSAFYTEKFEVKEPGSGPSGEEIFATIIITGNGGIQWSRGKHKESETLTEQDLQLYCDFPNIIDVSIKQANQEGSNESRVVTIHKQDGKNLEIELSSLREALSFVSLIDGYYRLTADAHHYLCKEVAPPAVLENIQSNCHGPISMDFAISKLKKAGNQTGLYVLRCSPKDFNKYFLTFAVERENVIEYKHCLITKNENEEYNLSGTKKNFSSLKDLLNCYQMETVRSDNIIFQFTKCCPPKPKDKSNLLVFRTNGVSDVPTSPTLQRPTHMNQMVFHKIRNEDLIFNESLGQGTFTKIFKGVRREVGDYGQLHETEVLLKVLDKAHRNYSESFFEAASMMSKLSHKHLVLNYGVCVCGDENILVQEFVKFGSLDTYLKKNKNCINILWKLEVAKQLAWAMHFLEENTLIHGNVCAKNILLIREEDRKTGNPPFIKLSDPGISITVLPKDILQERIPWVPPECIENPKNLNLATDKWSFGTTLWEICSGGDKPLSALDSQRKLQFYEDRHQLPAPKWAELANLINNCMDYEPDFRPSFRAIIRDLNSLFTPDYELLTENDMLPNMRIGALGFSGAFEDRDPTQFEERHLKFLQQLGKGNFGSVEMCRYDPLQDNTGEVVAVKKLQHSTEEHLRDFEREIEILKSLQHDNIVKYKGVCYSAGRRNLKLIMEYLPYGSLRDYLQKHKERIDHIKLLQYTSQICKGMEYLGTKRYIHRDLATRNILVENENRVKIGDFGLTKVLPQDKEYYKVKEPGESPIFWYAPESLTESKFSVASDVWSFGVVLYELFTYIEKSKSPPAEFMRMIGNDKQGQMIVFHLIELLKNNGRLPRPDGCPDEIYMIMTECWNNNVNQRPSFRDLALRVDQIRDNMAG
Sequence of Mast/stem cell growth factor receptor Kit (P10721 whole entry): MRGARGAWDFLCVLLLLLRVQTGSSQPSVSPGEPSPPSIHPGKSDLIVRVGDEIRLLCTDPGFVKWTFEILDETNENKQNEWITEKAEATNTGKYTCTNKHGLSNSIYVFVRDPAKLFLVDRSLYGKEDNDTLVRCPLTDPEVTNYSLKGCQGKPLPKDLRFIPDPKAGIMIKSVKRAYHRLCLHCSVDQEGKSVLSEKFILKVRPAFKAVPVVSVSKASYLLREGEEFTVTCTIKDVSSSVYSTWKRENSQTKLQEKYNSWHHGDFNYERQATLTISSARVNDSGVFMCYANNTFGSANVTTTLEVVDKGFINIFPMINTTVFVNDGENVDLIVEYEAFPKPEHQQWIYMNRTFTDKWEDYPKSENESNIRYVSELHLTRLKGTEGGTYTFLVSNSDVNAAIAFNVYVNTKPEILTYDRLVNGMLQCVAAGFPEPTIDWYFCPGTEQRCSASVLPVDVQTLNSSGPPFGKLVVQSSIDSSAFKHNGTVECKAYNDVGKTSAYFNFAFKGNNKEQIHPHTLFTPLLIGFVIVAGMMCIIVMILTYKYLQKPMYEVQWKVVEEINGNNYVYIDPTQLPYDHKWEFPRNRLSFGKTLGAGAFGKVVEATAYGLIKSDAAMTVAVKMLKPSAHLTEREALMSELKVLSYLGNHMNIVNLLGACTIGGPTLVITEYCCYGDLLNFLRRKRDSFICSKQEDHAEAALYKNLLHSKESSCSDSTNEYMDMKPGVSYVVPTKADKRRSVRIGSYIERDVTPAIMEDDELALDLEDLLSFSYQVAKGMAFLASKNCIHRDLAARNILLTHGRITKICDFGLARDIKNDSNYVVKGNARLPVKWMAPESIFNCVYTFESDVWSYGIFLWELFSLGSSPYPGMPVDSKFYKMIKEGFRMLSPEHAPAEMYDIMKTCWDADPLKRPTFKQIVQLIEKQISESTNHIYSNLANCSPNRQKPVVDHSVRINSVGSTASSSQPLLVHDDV

## CN1CCN(c2ccc(C(=O)Nc3n[nH]c4ccc(Cc5cc(F)cc(F)c5)cc34)c(NC3CCOCC3)c2)CC1 [ENTRECTINIB]
[1]
  AUC(0-inf): 5.7 µM·h
[2]
  AUC(0-inf): 5.13 µM·h
[3]
  IC50: 40 nM
[4]
  bioavailability: 77%
[5]
  Papp A→B at 2 h, 2.5 mg/ml: 2.4 ×10⁻⁶ cm/s
[6]
  IC50: > 10000 nM
[7]
  IC50: > 1000 nM
[8]
  Papp B→A at 2 h, 2.5 mg/ml: 3 ×10⁻⁶ cm/s
[9]
  CLint scaled: 33 mL/min/kg
[10]
  IC50: > 10000 nM
[11]
  clearance: 13.5 mL/min/kg
KM12
  IC50: 17 nM
NCI-H2228
  IC50: 68 nM
[12]
  bioavailability: 43%
[13]
  IC50: 31 nM
[14]
  bioavailability: 32%
[15]
  solubility: 20 µM (≈ 11.2 µg/mL)
[16]
  clearance: 17.5 mL/min/kg
[17]
  Cmax: 1.33 µM
[18]
  Tmax: 2.5 h
[19]
  half-life: 15.2 h
[20]
  half-life: 3.59 h
[21]
  Cmax: 4.9 µM
[22]
  Cmax: 8.6 µM
[23]
  AUC(0-inf): 17.4 µM·h
[24]
  half-life: 2.94 h
[25]
  IC50: > 1000 nM
Mus musculus
  Activity: Non-toxic
[26]
  AUC(0-inf): 17.6 µM·h
[27]
  Kp at 6 h: 0.43
